Test results: US6737383B1, “Herbicidal oxadiazolidines” (priority 1999, dated 2004)

Tests used:
[1] = tested on: Green foxtail; test: Test D green foxtail; type: in vivo; conditions: Preemergence, 0 to 100 scale
How it was run: (§1)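 Herbicide screen in the greenhouse. A non-phytotoxic solvent mixture with surfactant carried the test chemical; in pre-emergence tests it went onto the soil of pots seeded no more than a day earlier. Injury was scored by eye 14 to 21 days after application, 0 to 100.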

[2] = tested on: common groundsel; test: Test D common groundsel; type: in vivo, Senecio vulgaris; conditions: Preemergence, 0 to 100 scale
How it was run: as §1

[3] = tested on: Spanishneedles; test: Test D Spanishneedles; type: in vivo, Bidens bipinnata; conditions: Preemergence, 0 to 100 scale; for Spanishneedles plant response rating: 0 no injury, 100 complete control
How it was run: as §1

[4] = tested on: bermuda-grass; test: Test D bermudagrass; type: in vivo, Cynodon dactylon; conditions: Preemergence, 0 to 100 scale
How it was run: as §1

[5] = tested on: tall mallow; test: Test D tall mallow; type: in vivo, Malva sylvestris; conditions: Preemergence, 0 to 100 scale; for Tall Mallow plant response rating: 0 no injury, 100 complete control
How it was run: as §1

[6] = tested on: sandbur; test: Test D sandbur; type: in vivo, Cenchrus echinatus; conditions: Preemergence, 0 to 100 scale; for Sandbur plant response rating: 0 no injury, 100 complete control
How it was run: as §1

[7] = tested on: guineagrass; test: Test D guineagrass; type: in vivo, Panicum maximum; conditions: Preemergence, 0 to 100 scale
How it was run: as §1

[8] = tested on: large crabgrass; test: Test D large crabgrass; type: in vivo, Digitaria sanguinalis; conditions: Preemergence, 0 to 100 scale
How it was run: as §1

[9] = tested on: purple nutsedge; test: Test D purple nutsedge; type: in vivo, Cyperus rotundus; conditions: Preemergence, 0 to 100 scale; for Purple nutsedge plant response rating: 0 no injury, 100 complete control
How it was run: as §1

[10] = tested on: Green foxtail; test: Test D green foxtail; type: in vivo; conditions: Preemergence, 0 to 100 scale; remark: listed apart in the source
How it was run: as §1

[11] = tested on: windgrass; test: Test E windgrass; type: in vivo, Apera spica-venti; conditions: Rate 250 g/ha, Postemergence; 0 to 100 scale where 0 is no effect and 100 is complete control
How it was run: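 For postemergence, application to 1- to 4-leaf plants growing in a 60:40 sandy loam–potting mix substrate. Formulation: non-phytotoxic solvent mixture plus surfactant. Untreated controls served as the reference for the visual rating after ~21–28 days.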

[12] = tested on: itchgrass; test: Test D itchgrass; type: in vivo, Rottboellia exaltata; conditions: Preemergence, 0 to 100 scale
How it was run: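 Scoring used a 0–100 visual injury scale, with 0 meaning no effect and 100 complete control, assessed 14–21 days after application alongside untreated pots. Preemergence treatments went onto sandy loam surfaces of separately potted seeds within a day of sowing.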

[13] = tested on: surinam grass; test: Test D surinam grass; type: in vivo, Brachiaria decumbens; conditions: Preemergence, 0 to 100 scale; for Surinam grass plant response rating: 0 no injury, 100 complete control
How it was run: as §1

[14] = tested on: pitted morningglory; test: Test D pitted morningglory; type: in vivo, Ipomoea lacunosa; conditions: Preemergence, 0 to 100 scale
How it was run: as §1

[15] = tested on: Johnson grass; test: Test D Johnson grass; type: in vivo, Sorghum halepense; conditions: Preemergence, 0 to 100 scale
How it was run: as §1

[16] = tested on: common pursiane; test: Test D common purslane; type: in vivo, Portulaca oleracea; conditions: Preemergence, 0 to 100 scale
How it was run: as §1

[17] = Rate 64 g/ha, 0 no injury, 100 complete control
[18] = Rate 125 g/ha, 0 no injury, 100 complete control

For `CC(C)N(C(=O)n1oc(=O)n(C)c1=O)c1ccc(F)cc1` [Compound 138], the “Green foxtail plant response rating” value [1, 17] was 100, the “Plant response rating, Green foxtail” value [1, 17] was 100 and the “Green foxtail plant response rating” value [1, 18] was 100. For the same compound, the “Plant response rating, Green foxtail” value [1, 18] was 100, the “Plant response rating, Green foxtail” value ([1]; Rate 250 g/ha) was 100 and the “Plant response rating, Green foxtail” value ([1]; Rate 500 g/ha) was 100. The “Plant response rating, Com. groundsel” value [2, 17] was 40, the “Plant response rating, Com. groundsel” value [2, 18] was 100 and the “Plant response rating, Com. groundsel” value ([2]; Rate 250 g/ha) was 100. For the same compound, the “Plant response rating, Com. groundsel” value ([2]; Rate 500 g/ha) was 100, the “Spanishneedles plant response rating” value ([3]; Rate 64 g/ha) was 10 and the “Spanishneedles plant response rating” value ([3]; Rate 125 g/ha) was 10. For the same compound, the “Plant response rating, Spanishneedles” value ([3]; Rate 250 g/ha) was 30, the “Plant response rating, Spanishneedles” value ([3]; Rate 500 g/ha) was 75 and the “Plant response rating, Bermudagrass” value [4, 17] was 100. For the same compound, the “Plant response rating, Bermudagrass” value [4, 18] was 100, the “Plant response rating, Bermudagrass” value ([4]; Rate 250 g/ha) was 100 and the “Plant response rating, Bermudagrass” value ([4]; Rate 500 g/ha) was 100. For the same compound, the “Tall Mallow plant response rating” value ([5]; Rate 64 g/ha) was 40, the “Tall Mallow plant response rating” value ([5]; Rate 125 g/ha) was 40 and the “Plant response rating, Tall Mallow” value ([5]; Rate 250 g/ha) was 70. The “Plant response rating, Tall Mallow” value ([5]; Rate 500 g/ha) was 100, the “Sandbur plant response rating” value ([6]; Rate 64 g/ha) was 65 and the “Sandbur plant response rating” value ([6]; Rate 125 g/ha) was 65. The “Plant response rating, Sandbur” value ([6]; Rate 250 g/ha) was 98, the “Plant response rating, Sandbur” value ([6]; Rate 500 g/ha) was 100 and the “Plant response rating, Guineagrass” value [7, 17] was 100. For the same compound, the “Plant response rating, Guineagrass” value [7, 18] was 100, the “Plant response rating, Guineagrass” value ([7]; Rate 250 g/ha) was 100 and the “Plant response rating, Guineagrass” value ([7]; Rate 500 g/ha) was 100. The “Plant response rating, Large crabgrass” value [8, 17] was 100, the “Plant response rating, Large crabgrass” value [8, 18] was 100 and the “Plant response rating, Large crabgrass” value ([8]; Rate 250 g/ha) was 100. The “Plant response rating, Large crabgrass” value ([8]; Rate 500 g/ha) was 100, the “Purple nutsedge plant response rating” value ([9]; Rate 64 g/ha) was 30 and the “Purple nutsedge plant response rating” value ([9]; Rate 125 g/ha) was 65. The “Plant response rating, Purple nutsedge” value ([9]; Rate 250 g/ha) was 75, the “Plant response rating, Purple nutsedge” value ([9]; Rate 500 g/ha) was 80 and the “Plant response rating, Green foxtail” value ([10]; Rate 250 g/ha) was 100. The “Plant response rating, Green foxtail” value ([10]; Rate 500 g/ha) was 100, the “Windgrass plant response rating” value [11] was 95 and the “Plant response rating, Itchgrass” value [12, 17] was 30. The “Plant response rating, Itchgrass” value [12, 18] was 80, the “Plant response rating, Itchgrass” value ([12]; Rate 250 g/ha) was 100 and the “Plant response rating, Itchgrass” value ([12]; Rate 500 g/ha) was 100. For the same compound, the “Surinam grass plant response rating” value ([13]; Rate 64 g/ha) was 40, the “Surinam grass plant response rating” value ([13]; Rate 125 g/ha) was 85 and the “Plant response rating, Surinam grass” value ([13]; Rate 250 g/ha) was 98. For the same compound, the “Plant response rating, Surinam grass” value ([13]; Rate 500 g/ha) was 100, the “Plant response rating, P. morninglory” value [14, 17] was 65 and the “Plant response rating, P. morninglory” value [14, 18] was 65. For the same compound, the “Plant response rating, P. morninglory” value ([14]; Rate 250 g/ha) was 65, the “Plant response rating, P. morninglory” value ([14]; Rate 500 g/ha) was 65 and the “Plant response rating, Johnsongrass” value [15, 17] was 40. For the same compound, the “Plant response rating, Johnsongrass” value [15, 18] was 65, the “Plant response rating, Johnsongrass” value ([15]; Rate 250 g/ha) was 100 and the “Plant response rating, Johnsongrass” value ([15]; Rate 500 g/ha) was 100. The “Plant response rating, C. purslane” value [16, 17] was 0, the “Plant response rating, C. purslane” value [16, 18] was 30 and the “Plant response rating, C. purslane” value ([16]; Rate 250 g/ha) was 100. The “Plant response rating, C. purslane” value ([16]; Rate 500 g/ha) was 100.
